Measurements as given in US20240180883A1, “TREATMENT OF MIGRAINE” (Allergan Pharmaceuticals International Limited, priority 2020, published 2024).
Values joined by “and” are separate entries in the source; they are usually repeats but may differ in a detail not shown here. Equal entries are not always repeated. Where two headings read alike, the source gives them in different places.

What was measured:
BCRP and/or P-gp = assay: Predicted interaction with BCRP and/or P-gp inhibitors
[1] = tested on: adult patients with migraine; assay: Phase 3 Study 2 (NCT02867709) migraine efficacy; format: in vivo, human; details: Study 2, 50 mg
Excerpt: (§1) In two randomized, double-blind, placebo-controlled, Ph. […] Of the ubrogepant-treated patients in these two studies, approximately 89% were female, 82% were white, 15% were Black, and 17% were of Hispanic or Latino ethnicity. The mean age at study entry was 41 years (range of 18-75 years).
(§2) In all studies, patients were instructed to treat a migraine with moderate to severe headache pain intensity. […] Up to 23% of patients were taking preventive medications for migraine at baseline. None of these patients were on concomitant preventive medication that act on the CGRP pathway.
(§3) The primary efficacy analyses were conducted in patients who treated a migraine with moderate to severe pain. […] Pain freedom was defined as a reduction of moderate or severe headache pain to no pain, and MBS freedom was defined as the absence of the self-identified MBS (i.e., photophobia, phonophobia, or nausea). Among patients who selected an MBS, the most commonly selected was photophobia (56%), followed by phonophobia (24%) and nausea (19%).
(§4) Table 14 also presents the results of the analyses of the percentage of patients achieving pain relief at 2 hours (defined as a reduction in migraine pain from moderate or severe to mild or none) post-dose and the percentage of patients achieving sustained pain freedom between 2 to 24 hours post-dose.

CYP3A4 = target: T1, CYP3A4 (Homo sapiens, UniProt P08684); assay: Expected interaction with weak or moderate CYP3A4 inducers
T1 construct: mainly eliminated by CYP3A4 metabolism; from tissue; host or cells: in vivo, the patient's own enzyme (the gut wall is mentioned)
T1 sequence (P08684 whole entry): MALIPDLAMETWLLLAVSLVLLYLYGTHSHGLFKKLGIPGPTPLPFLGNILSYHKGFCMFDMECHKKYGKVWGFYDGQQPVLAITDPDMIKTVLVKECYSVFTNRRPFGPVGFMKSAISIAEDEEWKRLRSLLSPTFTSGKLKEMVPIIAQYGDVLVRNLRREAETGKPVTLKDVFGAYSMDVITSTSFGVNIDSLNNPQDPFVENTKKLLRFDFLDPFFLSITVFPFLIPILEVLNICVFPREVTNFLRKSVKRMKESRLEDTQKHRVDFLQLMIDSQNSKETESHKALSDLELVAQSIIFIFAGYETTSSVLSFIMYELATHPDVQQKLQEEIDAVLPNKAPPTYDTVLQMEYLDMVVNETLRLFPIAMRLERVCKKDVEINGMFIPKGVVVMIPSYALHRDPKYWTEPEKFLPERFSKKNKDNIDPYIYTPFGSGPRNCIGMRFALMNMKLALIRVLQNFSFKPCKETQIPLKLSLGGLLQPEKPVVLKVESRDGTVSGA

[2] = Long-term safety, open-label extension study; format: in vivo, human
Description: Long-term safety was assessed in 813 patients, dosing intermittently for up to 1 year in an open-label extension study. […] Of these 813 patients, 421 patients were exposed to 50 mg or 100 mg for at least 6 months, and 364 patients were exposed to these doses for at least one year, all of whom treated at least two migraine attacks per month, on average. […] The most common adverse reaction resulting in discontinuation in the long-term safety study was nausea.

[3] = Ubrogepant clinical pharmacokinetics summary; format: in vivo, human
Description: Ubrogepant is excreted mainly through the biliary/fecal route, while the renal route is a minor route of elimination.
In clinical studies, ubrogepant was administered without regard to food. […]

plasma protein = assay: Plasma protein binding by equilibrium dialysis (hepatic impairment study); format: in vitro ADME, human
Description: Sampling was also done at the following times for plasma protein binding determinations: Day 1 at 0 hour (predose) and 2 hours post dose.
Protein binding blood samples were collected from all participants starting on Day 1 at 0 hour (predose) and at 2 hours post-dose. The pre-dose samples collected prior to dosing for each participants were spiked with known quantities of ubrogepant.

[4] = Study A: drug interaction PK with verapamil or ketoconazole; format: in vivo, human; details: for AUC(0-inf) / half-life / Cmax / Tmax: human, plasma, oral
Excerpt: Study A (verapamil and ketoconazole) comprised 3 treatment periods.
Healthy adults aged 19-50 years for Study A and 18-45 years for Study B were eligible to participate. […] For study B, participants had to have a BMI between 18.0 and 30 kg/m^2. Exclusion criteria for both studies included hypersensitivity to any study drug; exposure to hepatitis B virus, hepatitis C virus, or HIV; or use of any drug or substance known to affect CYP enzymes or P-gp.

[5] = Adverse reactions in Studies 1 and 2; format: in vivo, human
Excerpt: as §1

[6] = tested on: adult patients with migraine; assay: Phase 3 Study 1 (NCT02828020) migraine efficacy; format: in vivo, human
Excerpt: as §1, §2, §3, §4

[7] = single dose [14C]-ubrogepant, healthy male subjects
[8] = Studies 1 and 2, 50 mg (N = 954)
[9] = Studies 1 and 2, 100 mg (N = 485)

## C[C@@H]1[C@H](c2ccccc2)C[C@H](NC(=O)c2cnc3c(c2)C[C@@]2(C3)C(=O)Nc3ncccc32)C(=O)N1CC(F)(F)F [ubrogepant, (3′S)-N-((3S,5S,6R)-6-methyl-2-oxo-5-phenyl-1-(2,2,2-trifluoroethyl)piperidin-3-yl)-2′-oxo-1′,2′,5,7-etrahydrospiro[cyclopenta[b]pyridine-6,3′-pyrrolo[2,3-b]pyridine]-3-carboxamide]
BCRP and/or P-gp
  highest predicted potential increase in exposure: ≤ 2 fold
[1]
  Most Bothersome Symptom Free at 2 hours, % Responders: 38.9%
  Most Bothersome Symptom Free at 2 hours, Difference from Placebo: 11.5%
  Pain Relief at 2 hours, % Responders: 62.7%
  Pain free at 2 hours, % Responders: 21.8%
  Pain free at 2 hours, Difference from Placebo: 7.5%
  Sustained pain freedom at 2-24 hours, % Responders: 14.4%
CYP3A4; moderate CYP3A4 inducers
  reduction of ubrogepant exposure: 50-80%
CYP3A4; weak CYP3A4 inducers
  reduction of ubrogepant exposure: 20-50%
[2]; intermittent dosing for up to 1 year, 50 mg or 100 mg
  patients withdrawn because of an adverse reaction: 2.5%
[2]; long-term safety study
  most common adverse reaction resulting in discontinuation: nausea
[3]; human, in vivo
  renal route elimination: < 10%
[3]; human, in vivo, po
  mean apparent oral clearance (CL/F): approximately 87 L/hr
[3]; human, plasma, oral, read-out: elimination half-life
  half-life: 300 to 420 min
[3]; oral administration
  time of peak plasma concentrations: approximately 1.5 hours
[3]; [7]
  dose recovered as unchanged ubrogepant in feces: 42%
  dose recovered as unchanged ubrogepant in urine: 6%
[3]; single dose oral administration
  mean apparent central volume of distribution (V/L): approximately 350 L
[3]; with a high-fat meal
  change in AUC: no change in AUC
  delay of time to maximum plasma concentration: 2 h
  reduction in Cmax: 22%
Plasma protein; 0 hr (predose sample spiked with ubrogepant), mild-impaired
  percentage of protein-bound ubrogepant: 88.87 ± 1.12%
Plasma protein; 0 hr (predose sample spiked with ubrogepant), moderate-impaired
  percentage of protein-bound ubrogepant: 87.42 ± 1.89%
Plasma protein; 0 hr (predose sample spiked with ubrogepant), normal hepatic function
  percentage of protein-bound ubrogepant: 88.52 ± 0.84%
Plasma protein; 0 hr (predose sample spiked with ubrogepant), severe-impaired
  percentage of protein-bound ubrogepant: 84.58 ± 0.91%
Plasma protein; 2 hr post-dose, 100 mg, mild-impaired
  percentage of protein-bound ubrogepant: 89.9% and 89.85 ± 1.33%
Plasma protein; 2 hr post-dose, 100 mg, moderate-impaired
  percentage of protein-bound ubrogepant: 88.2% and 88.24 ± 1.02%
Plasma protein; 2 hr post-dose, 100 mg, normal hepatic function
  percentage of protein-bound ubrogepant: 89.3% and 89.28 ± 1.54%
Plasma protein; 2 hr post-dose, 100 mg, severe-impaired
  percentage of protein-bound ubrogepant: 85.3% and 85.27 ± 0.94%
[4]; coadministered with verapamil 240 mg vs alone
  increase in ubrogepant Cmax: ~2.8 fold
[4]; 20 mg, ubrogepant 20 mg alone (Table 9), read-out: AUC0-∞, AM
  AUC(0-inf): 213 ng·h/mL
[4]; 20 mg, ubrogepant 20 mg alone, read-out: AUC0-∞, mean (SD)
  AUC(0-inf): 213 ng·h/mL
[4]; 20 mg, ubrogepant 20 mg alone, read-out: Apparent terminal t1/2, mean (SD) (converted)
  half-life: 150 min
[4]; 20 mg, ubrogepant 20 mg alone, read-out: Cmax, mean (SD)
  Cmax: 45.2 ng/mL
[4]; 20 mg, ubrogepant 20 mg alone, read-out: Tmax, median (range)
  Tmax: 2 h
[4]; ubrogepant 20 mg + ketoconazole 400 mg, read-out: AUC0-∞, mean (SD)
  AUC(0-inf): 2070 ng·h/mL
[4]; ubrogepant 20 mg + ketoconazole 400 mg, read-out: Apparent terminal t1/2, mean (SD) (converted)
  half-life: 354 min
[4]; ubrogepant 20 mg + ketoconazole 400 mg, read-out: Cmax, mean (SD)
  Cmax: 240 ng/mL
[4]; ubrogepant 20 mg + ketoconazole 400 mg, read-out: Tmax, median (range)
  Tmax: 2.5 h
[4]; ubrogepant 20 mg with verapamil 240 mg, read-out: AUC0-∞, AM
  AUC(0-inf): 742 ng·h/mL
[4]; ubrogepant 20 mg with verapamil 240 mg, read-out: Apparent terminal t1/2, AM (converted)
  half-life: 257 min
[4]; ubrogepant 20 mg with verapamil 240 mg, read-out: Cmax, AM
  Cmax: 125 ng/mL
[4]; ubrogepant 20 mg with verapamil 240 mg, read-out: Tmax
  Tmax: 2 h
[4]; ubrogepant 20 mg + ketoconazole 400 mg
  Apparent terminal t1/2, mean (SD): 6.00 (1.27) h
[4]; ubrogepant 20 mg alone
  Apparent terminal t1/2, mean (SD): 2.52 (0.56) h and 2.52 h
[4]; with ketoconazole, a strong CYP3A4 inhibitor
  exposure of ubrogepant on co-administration: significant increase in exposure
[4]; with verapamil, a moderate CYP3A4 inhibitor
  exposure of ubrogepant on co-administration: increase in ubrogepant exposure
[5]; [8]
  Dry Mouth: <1%
  Nausea: 2%
  Somnolence (includes sedation and fatigue): 2%
[5]; [9]
  Dry Mouth: 2%
  Nausea: 4%
  Somnolence (includes sedation and fatigue): 3%
[6]; Study 1, 50 mg
  Most Bothersome Symptom Free at 2 hours, % Responders: 38.6%
  Most Bothersome Symptom Free at 2 hours, Difference from Placebo: 10.8%
  Pain Relief at 2 hours, % Responders: 60.7%
  Pain free at 2 hours, % Responders: 19.2%
  Pain free at 2 hours, Difference from Placebo: 7.4%
  Sustained pain freedom at 2-24 hours, % Responders: 12.7%
[6]; Study 1, 100 mg
  Most Bothersome Symptom Free at 2 hours, % Responders: 37.7%
  Most Bothersome Symptom Free at 2 hours, Difference from Placebo: 9.9%
  Pain Relief at 2 hours, % Responders: 61.4%
  Pain free at 2 hours, % Responders: 21.2%
  Pain free at 2 hours, Difference from Placebo: 9.4%
  Sustained pain freedom at 2-24 hours, % Responders: 15.4%
[6]; both doses (50 and 100 mg)
  incidence of photophobia and phonophobia compared to placebo: reduced
